Consider `COc1ccc(-c2cc(C(F)(F)F)nn2-c2ccc(S(N)(=O)=O)cc2)cc1I` [Example 7, 4-[5-(3-Iodo-4-methoxyphenyl)-3-trifluoromethyl-1H-pyrazol-1-yl]benzenesulfonamide], for which the melting point lay in the range of 183.1 to 185.6 °C.

As to `COc1ccc(-c2cc(CO)nn2-c2ccc(S(N)(=O)=O)cc2)cc1I` [Example 5, 4-[3-(Hydroxymethyl)-5-(3-iodo-4-methoxyphenyl)-1H-pyrazol-1-yl]benzenesulfonamide], the melting point was in the range of 192.3 to 193.3 °C.

Turning to `COc1ccc(-c2cc(C(F)F)nn2-c2ccc(S(N)(=O)=O)cc2)cc1I` [Example 6, 4-[3-(Difluoromethyl)-5-(3-iodo-4-methoxyphenyl)-1H-pyrazol-1-yl]benzenesulfonamide], the melting point was in the range of 184.2 to 188.4 °C.

(Values after US20010055565A1, “Method of detecting cyclooxygenase-2” (G.D. Searle & Co., priority 1995, published 2001).)
